Results as given in US9371265B2, “Compositions and methods related to inhibitors of JAK kinase” (EP PHARMA, INC., priority 2012, dated 2016).

Key:
HEK293 = HEK293 cell viability (MTS); assay type: cell-based, human; settings: 72 hours, concentrations giving complete loss of JAK3-dependent cell viability (0-10 μM)
Description: FIGS. 2A-2F. Selective inhibition of JAK3 by EP009 results in loss of JAK3-dependent tumor cell line viability with no detectable off-target effects in key cell types. (A) Chemical structure of EP009 (M.W. 224.34). (B) Kit225 or (C) BaF/3 cells cultured in the presence of IL-2 or IL-3, respectively, were treated with vehicle (PBS; lane a) or increasing amounts of EP009 (0-50 μM; lanes b-h) for 12 hours. Cells were then lysed, clarified, and immunoprecipitated (IP) with anti-JAK3 (α-JAK3) or anti-JAK2 (α-JAK2), and subjected to Western blot (WB) analysis with anti-phosphotyrosine (α-pY). Blots were stripped and reprobed with corresponding antibody to verify equivalent protein loading. […] (E) Kit225 or BaF/3 cells were cultured with increasing amounts of EP009 (0-10 μM) for 72 hours and cell viability measured with the MTS tetrazolium salt assay. Values represent mean absorbance (OD490-OD650 nm) normalized to vehicle (PBS) treated control cells, while error bars represent the standard deviation (n=3). (F) HEK293, HEPG2, or naïve primary human PBMCs were cultured with increasing amounts of EP009 (0-10 μM) for 72 hours and cell viability measured with the MTS tetrazolium salt assay. Values represent mean absorbance (OD490-OD650 nm) normalized to vehicle (PBS) treated control cells, while error bars represent the standard deviation (n=3). […]

AURKB = AURKB (Homo sapiens, UniProt Q96GD4); assay: Kinase panel: AURKB; assay type: biochemical; settings: 10 μM EP009
Chain of AURKB (Q96GD4 whole entry): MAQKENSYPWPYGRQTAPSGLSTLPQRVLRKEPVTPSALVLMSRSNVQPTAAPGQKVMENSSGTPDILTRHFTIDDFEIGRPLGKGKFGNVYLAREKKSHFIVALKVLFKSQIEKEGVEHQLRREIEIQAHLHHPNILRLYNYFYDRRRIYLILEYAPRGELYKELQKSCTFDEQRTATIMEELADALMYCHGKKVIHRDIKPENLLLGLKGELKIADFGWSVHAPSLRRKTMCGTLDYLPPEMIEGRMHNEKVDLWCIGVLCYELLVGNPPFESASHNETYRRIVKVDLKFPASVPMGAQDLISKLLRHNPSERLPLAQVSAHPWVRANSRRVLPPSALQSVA
Description: (§1) Achieving JAK3 selectivity remains a significant challenge in the development of new small molecules for the treatment of cancer and immune-derived diseases. As such, the inventors employed cell-based screening assays of small-molecule libraries based upon the chemical scaffold of the established JAK3 inhibitor NC1153 (Stepkowski et al., J Immunol. (2005), 175(7):4236-4246) EP009 (FIG. 2A) was selected as a lead compound due to improved intrinsic stability (>95% purity in various solvents at 37° C. for 24 hours; FIG. 3) and high-degree of JAK3 selectivity. To test JAK3 versus JAK2 specificity of EP009, the IL-2/JAK3-dependent Kit225, and IL-3/JAK2-dependent BaF/3 cell lines were used. Kit225 and BaF/3 cells growing in the presence of IL-2 or IL-3, respectively, were treated with ascending concentrations of EP009 for 12 hours and cellular JAK3 and JAK2 tyrosine phosphorylation levels detected by Western blot analysis (FIGS. 2B and 2C). Following densitometric analysis, EP009 was determined to dose-dependently reduce IL-2-mediated JAK3 tyrosine phosphorylation with a cellular 50% inhibitory concentration (IC50) between 10 and 20 μM (FIG. 2B). […] To globally evaluate specificity, the inhibitory activity of EP009 was measured against a panel of protein kinases distributed throughout the kinome using the scanEDGE profiling service (KINOMEscan). […]

MET = MET (Homo sapiens, UniProt P08581); assay: Kinase panel: MET; assay type: biochemical; settings: 10 μM EP009
Chain of MET (P08581 25-1390): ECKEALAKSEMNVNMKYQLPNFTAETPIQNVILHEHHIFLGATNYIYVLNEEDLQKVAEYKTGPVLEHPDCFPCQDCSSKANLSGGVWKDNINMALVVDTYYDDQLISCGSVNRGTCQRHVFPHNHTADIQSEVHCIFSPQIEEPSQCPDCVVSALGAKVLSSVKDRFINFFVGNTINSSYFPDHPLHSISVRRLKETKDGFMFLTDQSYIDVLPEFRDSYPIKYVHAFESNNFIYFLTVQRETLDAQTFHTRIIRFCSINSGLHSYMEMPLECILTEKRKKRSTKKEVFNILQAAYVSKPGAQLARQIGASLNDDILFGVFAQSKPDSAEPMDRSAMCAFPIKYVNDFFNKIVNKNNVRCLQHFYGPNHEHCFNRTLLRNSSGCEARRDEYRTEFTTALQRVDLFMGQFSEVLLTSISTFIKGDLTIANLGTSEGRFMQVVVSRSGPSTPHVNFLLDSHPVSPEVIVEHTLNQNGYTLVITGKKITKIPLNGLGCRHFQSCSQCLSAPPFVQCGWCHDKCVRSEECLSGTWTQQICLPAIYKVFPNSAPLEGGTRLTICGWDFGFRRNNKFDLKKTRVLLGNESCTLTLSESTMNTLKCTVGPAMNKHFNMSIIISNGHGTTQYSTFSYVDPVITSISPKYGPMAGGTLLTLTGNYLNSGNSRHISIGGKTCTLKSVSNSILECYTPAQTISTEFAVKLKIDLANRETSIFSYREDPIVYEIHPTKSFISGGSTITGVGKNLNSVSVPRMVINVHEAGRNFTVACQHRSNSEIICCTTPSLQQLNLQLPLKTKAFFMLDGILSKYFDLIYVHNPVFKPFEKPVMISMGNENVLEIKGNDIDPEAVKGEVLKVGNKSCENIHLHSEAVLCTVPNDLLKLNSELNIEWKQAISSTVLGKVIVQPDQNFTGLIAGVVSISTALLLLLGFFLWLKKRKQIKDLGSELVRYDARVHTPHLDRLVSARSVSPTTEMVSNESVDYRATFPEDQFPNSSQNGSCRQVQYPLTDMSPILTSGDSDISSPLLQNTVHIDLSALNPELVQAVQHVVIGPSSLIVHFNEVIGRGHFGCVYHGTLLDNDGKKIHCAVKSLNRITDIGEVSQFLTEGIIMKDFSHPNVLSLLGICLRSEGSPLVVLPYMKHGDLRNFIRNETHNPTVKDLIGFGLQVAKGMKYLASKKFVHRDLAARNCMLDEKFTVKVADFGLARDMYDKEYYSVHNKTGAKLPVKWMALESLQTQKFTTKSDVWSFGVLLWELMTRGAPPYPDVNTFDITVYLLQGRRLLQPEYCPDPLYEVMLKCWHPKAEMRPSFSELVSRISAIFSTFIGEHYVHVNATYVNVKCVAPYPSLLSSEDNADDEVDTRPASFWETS
Description: as §1

MEK1 = MEK1 (Homo sapiens, UniProt Q02750); assay: Kinase panel: MEK1; assay type: biochemical; settings: 10 μM EP009
Chain of MEK1 (Q02750 whole entry): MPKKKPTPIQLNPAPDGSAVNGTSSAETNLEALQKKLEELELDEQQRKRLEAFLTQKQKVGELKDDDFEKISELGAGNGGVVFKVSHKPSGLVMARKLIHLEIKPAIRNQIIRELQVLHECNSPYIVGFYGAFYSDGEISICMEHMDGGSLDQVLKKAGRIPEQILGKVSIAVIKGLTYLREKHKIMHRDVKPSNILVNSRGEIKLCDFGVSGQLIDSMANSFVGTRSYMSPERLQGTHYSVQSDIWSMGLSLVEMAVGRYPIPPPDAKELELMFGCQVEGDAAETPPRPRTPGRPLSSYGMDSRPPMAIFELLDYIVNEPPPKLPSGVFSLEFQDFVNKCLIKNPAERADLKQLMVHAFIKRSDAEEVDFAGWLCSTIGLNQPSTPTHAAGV
Description: as §1

MAPKAPK2 = MAPKAPK2 (Homo sapiens, UniProt P49137); assay: Kinase panel: MAPKAPK2; assay type: biochemical; settings: 10 μM EP009
Chain of MAPKAPK2 (P49137 whole entry): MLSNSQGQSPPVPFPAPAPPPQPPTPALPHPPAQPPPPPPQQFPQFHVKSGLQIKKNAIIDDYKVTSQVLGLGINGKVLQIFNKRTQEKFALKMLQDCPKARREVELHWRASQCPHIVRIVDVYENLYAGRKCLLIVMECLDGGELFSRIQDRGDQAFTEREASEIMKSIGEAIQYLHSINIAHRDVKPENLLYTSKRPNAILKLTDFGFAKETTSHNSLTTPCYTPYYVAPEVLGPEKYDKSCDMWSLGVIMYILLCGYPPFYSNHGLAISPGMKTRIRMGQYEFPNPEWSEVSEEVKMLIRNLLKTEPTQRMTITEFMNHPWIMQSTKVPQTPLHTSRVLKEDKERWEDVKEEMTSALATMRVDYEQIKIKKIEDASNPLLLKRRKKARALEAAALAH
Description: as §1

FGFR2 = FGFR2 (Homo sapiens, UniProt P21802); assay: Kinase panel: FGFR2; assay type: biochemical; settings: 10 μM EP009
Chain of FGFR2 (P21802 22-821): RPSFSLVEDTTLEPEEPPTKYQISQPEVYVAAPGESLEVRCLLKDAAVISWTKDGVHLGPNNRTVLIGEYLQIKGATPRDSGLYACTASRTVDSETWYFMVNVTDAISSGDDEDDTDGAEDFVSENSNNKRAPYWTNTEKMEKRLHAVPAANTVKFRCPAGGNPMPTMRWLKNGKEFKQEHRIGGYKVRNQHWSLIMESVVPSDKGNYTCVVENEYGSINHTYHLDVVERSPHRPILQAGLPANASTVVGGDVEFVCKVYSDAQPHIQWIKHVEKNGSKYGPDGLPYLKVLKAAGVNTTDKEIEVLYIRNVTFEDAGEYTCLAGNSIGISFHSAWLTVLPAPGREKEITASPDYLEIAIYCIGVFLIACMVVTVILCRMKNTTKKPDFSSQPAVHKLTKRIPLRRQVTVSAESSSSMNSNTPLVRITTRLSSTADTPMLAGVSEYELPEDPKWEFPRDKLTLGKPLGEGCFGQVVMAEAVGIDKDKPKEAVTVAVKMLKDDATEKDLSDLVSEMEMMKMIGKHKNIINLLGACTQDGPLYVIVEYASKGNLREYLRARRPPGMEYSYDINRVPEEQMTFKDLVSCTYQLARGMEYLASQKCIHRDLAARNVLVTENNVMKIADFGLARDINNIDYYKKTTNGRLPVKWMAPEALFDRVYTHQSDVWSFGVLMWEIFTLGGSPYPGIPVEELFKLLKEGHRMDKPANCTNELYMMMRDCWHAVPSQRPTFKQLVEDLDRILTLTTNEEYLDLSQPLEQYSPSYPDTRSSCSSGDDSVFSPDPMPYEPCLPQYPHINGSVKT
Description: as §1

## C=C1CCCCCCCCCC(CO)C1=O (stereo not drawn) [EP009, 2-(Hydroxymethyl)-12-methylenecyclododecanone]
HEK293
  effect on HEK293 cell viability: no detectable loss of cell viability
AURKB
  Kinase Activity (% of Control): 99 % of Control
MET
  Kinase Activity (% of Control): 89 % of Control
MEK1
  Kinase Activity (% of Control): 71 % of Control
MAPKAPK2
  Kinase Activity (% of Control): 100 % of Control
FGFR2
  Kinase Activity (% of Control): 100 % of Control
